From patent US5760017A, “Cyclodextrin derivatives usable in particular for solubilizing hydrophobic chemical compounds such as medicaments and their preparation process” (priority 1993, dated 1998)
In brackets after ≈: the same amount, converted by molar mass. Read-outs that look alike come from different tables or passages of the source.

Assays:
[1] = Solubilization of prednisolone in water by the cyclodextrin derivative; assay type: physicochemical
Procedure: 10 μmole of heptakis-6-ethanolamino-6-deoxycyclomaltoheptaose (in hydrochloride form) prepared in example 1, are dissolved in 1 ml of pure water (apyrogenic water for injection) and addition takes place of 5 μmole of prednisolone in the form of a 50 mmole/l concentrated solution in acetone. The acetone is eliminated by nitrogen passage for 10 minutes and the solution is lyophilized.
The residual solid, which contains 10 μmole of the cyclodextrin derivative and 5 μmole of prednisolone, is redissolved in the minimum of water at 25° C.

[2] = Ionization potential measurements (pK) by potentiometry; assay type: physicochemical
[3] = Solubility in water under physiological conditions; settings: sodium phosphate buffer, pH 7.4, aqueous buffer
[4] = tested on: human erythrocytes; assay: Hemolytic properties on human erythrocytes; assay type: cell-based; settings: 5 mmole/l hydrochloride solution (4 ml) with 0.4 ml human erythrocytes, pH 7.4, 30 minutes, 37° C.
Procedure: Thus, the hemolytic properties of the derivative obtained in example 1 were tested by contacting 0.4 ml of a solution of human erythrocytes and 4 ml of the 5 mmole/l hydrochloride solution, at a pH of 7.4, for 30 minutes and 37° C.

[5] = potentiometry, single pK, read-out: pK (single)
[6] = Solubility in water under physiological conditions, free base form, pH 7.40, 25° C.
[7] = Solubility in water under physiological conditions, hydrochloride form, pH 7.40, 25° C.

maximum prednisolone solubility reached in water in the presence of the cyclodextrin (derivative) [1] [mM] | pKa [2, 5] | solubility [3, 6] [mM] | solubility [3, 7] [mM] | SMILES | hemolysis (in words) [4] | maximum prednisolone solubility reached in water in the presence of the cyclodextrin (derivative) ([1]; 25° C., 10 μmole cyclodextrin derivative and 5 μmole prednisolone, lyophilized, redissolved in minimum of water (cyclodextrin derivative at 60 mmole/l for the per-substituted derivative)) [mM] | pKa ([2]; first of two pK's, read-out: pK (first of two)) | pKa ([2]; second of two pK's, read-out: pK (second of two)) | solubility [3] [mM]
30 | 7.05 | 140 (≈ 201 mg/mL) | 350 (≈ 503 mg/mL) | OCCNC[C@H]1O[C@@H]2O[C@H]3[C@H](O)[C@@H](O)[C@@H](O[C@H]4[C@H](O)[C@@H](O)[C@@H](O[C@H]5[C@H](O)[C@@H](O)[C@@H](O[C@H]6[C@H](O)[C@@H](O)[C@@H](O[C@H]7[C@H](O)[C@@H](O)[C@@H](O[C@H]8[C@H](O)[C@@H](O)[C@@H](O[C@H]1[C@H](O)[C@H]2O)O[C@@H]8CNCCO)O[C@@H]7CNCCO)O[C@@H]6CNCCO)O[C@@H]5CNCCO)O[C@@H]4CNCCO)O[C@@H]3CNCCO [Example 2, heptakis-6-ethanolamino-6-deoxycyclomaltoheptaose] |  |  |  |  | 
18 | 7.1 | 40 (≈ 47.1 mg/mL) | 95 (≈ 112 mg/mL) | OCCNC[C@H]1O[C@@H]2O[C@H]3[C@H](O)[C@@H](O)[C@@H](O[C@H]4[C@H](O)[C@@H](O)[C@@H](O[C@H]5[C@H](O)[C@@H](O)[C@@H](O[C@H]6[C@H](O)[C@@H](O)[C@@H](O[C@H]7[C@H](O)[C@@H](O)[C@@H](O[C@H]8[C@H](O)[C@@H](O)[C@@H](O[C@H]1[C@H](O)[C@H]2O)O[C@@H]8CO)O[C@@H]7CO)O[C@@H]6CO)O[C@@H]5CO)O[C@@H]4CO)O[C@@H]3CO [Example 1, mono-6-ethanolamino-6-deoxycyclomaltoheptaose] | no hemolysis was observed |  |  |  | 
 |  |  |  | NCCNC[C@H]1O[C@@H]2O[C@H]3[C@H](O)[C@@H](O)[C@@H](O[C@H]4[C@H](O)[C@@H](O)[C@@H](O[C@H]5[C@H](O)[C@@H](O)[C@@H](O[C@H]6[C@H](O)[C@@H](O)[C@@H](O[C@H]7[C@H](O)[C@@H](O)[C@@H](O[C@H]8[C@H](O)[C@@H](O)[C@@H](O[C@H]1[C@H](O)[C@H]2O)O[C@@H]8CO)O[C@@H]7CO)O[C@@H]6CO)O[C@@H]5CO)O[C@@H]4CO)O[C@@H]3CO [reference compound] |  | 12 | 7.5 | 9.5 | 70 (≈ 82.4 mg/mL)
